According to patent US20230365563A1, “QUINAZOLINE COMPOUND AND APPLICATION THEREOF” (SHANGHAI PHARMACEUTICALS HOLDING CO., LTD., priority 2020, published 2023):
Counter-ions that a name gives are not always drawn.

Columns and labels:
KRAS-G12D and SOS1 = biological target: T1, KRAS-G12D and SOS1 (Homo sapiens, UniProt P01116, G12D); assay: Inhibition of KRAS-G12D/SOS1 binding (Cisbio binding kit, 665/615 ratio), Effect Embodiment A; conditions: read-out: GTP-KRAS-G12D:SOS1 IC50
T1 construct: purchased
T1 sequence (P01116 1-188 isoform P01116-2 G12D): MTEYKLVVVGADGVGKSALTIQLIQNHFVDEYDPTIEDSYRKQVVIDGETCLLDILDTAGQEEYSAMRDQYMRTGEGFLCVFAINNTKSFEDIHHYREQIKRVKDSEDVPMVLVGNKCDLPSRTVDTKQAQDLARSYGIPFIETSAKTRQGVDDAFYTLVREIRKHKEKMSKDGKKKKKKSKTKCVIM
Procedure, shortened: (§1)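 Compounds are tested over eleven threefold dilution steps in duplicate, with final DMSO at 1%.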

KRAS_WT and SOS1 = biological target: T2, KRAS_WT and SOS1 (Homo sapiens, UniProt P01116); assay: Inhibition of KRAS_WT/SOS1 binding (Cisbio binding kit, 665/615 ratio), Effect Embodiment C; conditions: read-out: GTP-KRAS-WT:SOS1 IC50
T2 construct: purchased
T2 sequence (P01116 1-188 isoform P01116-2): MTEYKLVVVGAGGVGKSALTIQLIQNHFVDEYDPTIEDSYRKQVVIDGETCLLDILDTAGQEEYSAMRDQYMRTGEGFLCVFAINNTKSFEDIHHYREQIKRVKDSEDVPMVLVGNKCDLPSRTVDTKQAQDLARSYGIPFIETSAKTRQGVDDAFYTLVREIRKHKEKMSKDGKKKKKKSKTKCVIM
Procedure, shortened: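 Compounds tested as 3-fold, 11-point dilutions in duplicate at 1% DMSO final against the KRAS_WT/SOS1 binding system. IC50 derived by nonlinear regression fit.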

KRAS_G12D and cRAF = biological target: T3, KRAS_G12D and cRAF (Homo sapiens, UniProt P01116, G12D); assay: Inhibition of KRAS_G12D/cRAF binding (Cisbio binding kit, 665/615 ratio), Effect Embodiment B; conditions: read-out: GTP-KRAS-G12D:CRAF IC50
T3 construct: purchased
T3 sequence (P01116 1-188 isoform P01116-2 G12D): as the sequence (P01116 1-188 isoform P01116-2 G12D) above
Procedure, shortened: as §1

Compound | IC50 (KRAS-G12D and SOS1) [nM] | IC50 (KRAS_WT and SOS1) [nM] | IC50 (KRAS_G12D and cRAF) [nM]
CC1OCCN(CCCOc2nc(N3CC4CCC(C3)N4)c3cc(Cl)c(-c4cc(O)cc5ccccc45)c(F)c3n2)C1C (single isomer, unassigned) [Compound 265b, 4-((R or S)-4-((1R,5S)-3,8-diazabicyclo[3.2.1]octan-3-yl)-6-chloro-2-(3-((2S or 2R, 3R or 3S)-2,3-dimethylmorpholinyl)propoxy)-8-fluoroquinazolin-7-yl)naphthalen-2-ol diformate] | 59.6 | 7850 | 199
CC1OCCN(CCCOc2nc(N3CC4CCC(C3)N4)c3cc(Cl)c(-c4cc(O)cc5ccccc45)c(F)c3n2)C1C (single isomer, unassigned) [Compound 265c, 4-((R or S)-4-((1R,5S)-3,8-diazabicyclo[3.2.1]octan-3-yl)-6-chloro-2-(3-((2S or 2R, 3S or 3R)-(2,3-dimethylmorpholinyl)propoxy)-8-fluoroquinazolin-7-yl)naphthalen-2-ol diformate] | 49.8 | 1280 | 135
CC1OCCN(CCCOc2nc(N3CC4CCC(C3)N4)c3cc(Cl)c(-c4cc(O)cc5ccccc45)c(F)c3n2)C1C (single isomer, unassigned) [Compound 265d, 4-((R or S)-4-((1R,5S)-3,8-diazabicyclo[3.2.1]octan-3-yl)-6-chloro-2-(3-(2R or 2S, 3R or 3S)-2,3-dimethylmorpholinyl)propoxy)-8-fluoroquinazolin-7-yl)naphthalen-2-ol diformate] | 50 | 4900 | 184
CO[C@@H](COc1nc(N2CC3CCC(C2)N3)c2cc(Cl)c(-c3cc(O)cc4ccccc34)c(F)c2n1)CN1CCCC[C@H]1C (single isomer, unassigned) [Compound 266, (R or S)-4-(4-((1R,5S)-3,8-diazacyclo[3.2.1]octan-3-yl)-6-chloro-8-fluoro-2-((R)-2-methoxy-3-((R)-2-methylpiperidin-1-yl)propoxy)quinazolin-7-yl)naphthalen-2-ol diformate] | 174 | > 10000 | 746
Oc1cc(-c2c(Cl)cc3c(N4CC5CCC(C4)N5)nc(OCCN4CCCC(F)C4)nc3c2F)c2ccccc2c1 (single isomer, unassigned) [Compound 267a, 4-((R or S)-4-((1R,5S)-3,8-diazacyclo[3.2.1]octan-3-yl)-6-chloro-8-fluoro-2-(2-((S or R)-3-fluoropiperidin-1-yl)ethoxy)quinazolin-7-yl)naphthalen-2-ol formate] | 76.7 | 6340 | 259
Oc1cc(-c2c(Cl)cc3c(N4CC5CCC(C4)N5)nc(OCCN4CCCC(F)C4)nc3c2F)c2ccccc2c1 (single isomer, unassigned) [Compound 267b, 4-((R or S)-4-((1R,5S)-3,8-diazacyclo[3.2.1]octan-3-yl)-6-chloro-8-fluoro-2-(2-((R or S)-3-fluoropiperidin-1-yl)ethoxy)quinazolin-7-yl)naphthalen-2-ol formate] | 118 | 4600 | 278
C[C@H]1CCCCN1CCOc1nc(N2CC3CCC(C2)N3)c2cc(Cl)c(-c3cc(O)cc4ccccc34)c(F)c2n1 (single isomer, unassigned) [Compound 268, (R or S)-4-(4-((1R,5S)-3,8-diazacyclo[3.2.1]octan-3-yl)-6-chloro-8-fluoro-2-(2-((S)-2-methylpiperidin-1-yl)ethoxy)quinazolin-7-yl)naphthalen-2-ol diformate] | 52.4 | 3610 | 346
C[C@@H]1CCCCN1CCOc1nc(N2CC3CCC(C2)N3)c2cc(Cl)c(-c3cc(O)cc4ccccc34)c(F)c2n1 (single isomer, unassigned) [Compound 269, (S or R)-4-(4-((1R,5S)-3,8-diazacyclo[3.2.1]octan-3-yl)-6-chloro-8-fluoro-2-(2-((R)-2-methylpiperidin-1-yl)ethoxy)quinazolin-7-yl)naphthalen-2-ol formate] | 67.9 | 1760 | 339
Oc1cc(-c2c(Cl)cc3c(N4CC5CCC(C4)N5)nc(OCCCN4CCC5(CCOC5)C4)nc3c2F)c2ccccc2c1 (single isomer, unassigned) [Compound 270, (4R or 4S)-4-(2-(3-(2-oxo-7-azaspiro[4.4]nonan-7-yl)propoxy)-4-(1R,5S)-3,8-diazacyclo[3.2.1]octan-3-yl)-6-chloro-8-fluoroquinazolin-7-yl)naphthalen-2-ol diformate] | 43.1 | 1210 | 202

Results, then the molecule that gave them:

IC50 (KRAS-G12D and SOS1) [nM] | IC50 (KRAS_WT and SOS1) [nM] | IC50 (KRAS_G12D and cRAF) [nM] | Compound
9.86 | 179 | 11.4 | CCc1cccc2cc(O)cc(-c3c(F)cc4c(N5CC6CCC(C5)N6)nc(OCCCN5C6CCC5COC6)nc4c3F)c12 (single isomer, unassigned) [Compound 271a, 4-((7S or 7R)-2-(3-(3-oxa-8-azabicyclo[3.2.1]octan-8-yl)propoxy)-4-((1R,5S)-3,8-diazabicyclo[3.2.1]octan-3-yl)-6,8-difluoroquinazolin-7-yl)-5-ethylnaphthalen-2-ol diformate]
18 | 4260 | 76.8 | C#Cc1c(F)ccc2cccc(-c3c(F)cc4c(N5CC6CCC(C5)N6)nc(OCCCN5C6CCC5COC6)nc4c3F)c12 (single isomer, unassigned) [Compound 272b, 8-(3-((R or S)-4-((1R,5S)-3,8-diazabicyclo[3.2.1]octan-3-yl)-7-(8-ethynyl-7-fluoronaphtthalen-1-yl)-6,8-difluoroquinazolin-2-yl)oxy)propyl)-3-oxa-8-azabicyclo[3.2.1]octane formate]
11.3 | 69.8 | 7.91 | C#Cc1cccc2cc(O)cc(-c3c(F)cc4c(N5CC6CCC(C5)N6)nc(OCCCN5C6CCC5COC6)nc4c3F)c12 (single isomer, unassigned) [Compound 273a, 4-((7S or 7R)-2-(3-(3-oxa-8-azabicyclo[3.2.1]octan-8-yl)propoxy)-4-((1R,5S)-3,8-diazabicyclo[3.2.1]octan-3-yl)-6,8-difluoroquinazolin-7-yl)-5-ethynylnaphthalen-2-ol diformate]
17.6 | 122 | 38.6 | N#Cc1cccc2cc(O)cc(-c3c(F)cc4c(N5CC6CCC(C5)N6)nc(OCCCN5C6CCC5COC6)nc4c3F)c12 (single isomer, unassigned) [Compound 278a, 8-((7S or 7R)-2-(3-(3-oxa-8-azabicyclo[3.2.1]octan-8-yl)propoxy)-4-((1R,5S)-3,8-diazabicyclo[3.2.1]octan-3-yl)-6,8-difluoroquinazolin-7-yl)-6-hydroxy-1-naphthonitrile diformate]
8.77 | 27.3 | 10.9 | C#Cc1c(F)ccc2cccc(-c3c(F)cc4c(N5CC6CCC(C5)N6)nc(OC[C@@]56CCCN5C[C@H](F)C6)nc4c3F)c12 (single isomer, unassigned) [Compound 279a, (S or R)-4-((1R,5S)-3,8-diazacyclo[3.2.1]octyl-3-yl)-7-(8-ethynyl-7-fluoronaphthalen-1-yl)-6,8-difluoro-2-((2R,7aS)-2-fluorotetrahydro-1H-pyrrolidin-7a(5H)-yl)methoxy)quinazoline formate]
